Test results from patent US7914785B2, “B-cell depleting agents, like anti-CD20 antibodies or fragments thereof for the treatment of chronic fatigue syndrome” (Bergen Teknologieverforing AS, priority 2009, dated 2011).

Experiments:
[1] = tested on: patients with long-standing fatigue; conditions: 12 patients treated; cited from earlier work
[2] = tested on: CFS patients; conditions: 99 CFS patients; cited from earlier work
[3] = tested on: B-cells in rheumatoid arthritis patients; conditions: given orally on a weekly schedule for rheumatoid arthritis; cited from earlier work
[4] = tested on: CFS symptoms in patients with chronic fatigue syndrome; assay: Pilot treatment of three CFS patients with Rituximab infusions and weekly oral Methotrexate; assay type: in vivo, human; conditions: pilot patient 1, weekly oral low-dose 7.5 to 12.5 mg per week; for clinical response on CFS symptoms: used for 22 weeks
From the text: The symptom score of CFS symptoms which is in a range of 0 to 10 wherein 0 means no symptoms while 10 refers to very severe symptoms of CFS.
Methotrexat (Mtx) is a therapeutic agent with known (but not well understood) immunomodulatory properties.

[5] = tested on: patients with CFS; conditions: six patients with CFS; cited from earlier work

CC(C)[C@H](N)C(=O)OCC(CO)OCn1cnc2c(=O)nc(N)[nH]c21 (some centres unmarked) [valganciclovir]
patients with improvement of the symptoms [1]: nine

CC[C@H]1OC(=O)[C@H](C)[C@@H](O[C@H]2C[C@@](C)(OC)[C@@H](O)[C@H](C)O2)[C@H](C)[C@@H](O[C@@H]2O[C@H](C)C[C@H](N(C)C)[C@H]2O)[C@](C)(O)C[C@@H](C)CN(C)[C@H](C)[C@@H](O)[C@]1(C)O [azithromycin]
CFS patients with improvement [2]: 59%

CN(Cc1cnc2nc(N)nc(N)c2n1)c1ccc(C(=O)N[C@@H](CCC(=O)O)C(=O)O)cc1 [Methotrexate]
B-cell depletion [3]: moderate B-cell depletion
start of CFS symptom recovery after onset of weekly treatment [4]: 10 weeks
clinical response on CFS symptoms [4]: significant and moderate clinical response on CFS symptoms
clinical response on CFS symptoms ([4]; listed as Mtx): gradual and moderate CFS symptom recovery
start of CFS symptom recovery after onset of weekly treatment ([4]; listed as Mtx): 12 weeks

etanercept
clinical outcome [5]: clinical benefit
